The values below come from patent US4239709A, “Process for preparing optically active oxazaphosphorins” (Otsuka Pharmaceutical Co., Ltd., priority 1978, dated 1980).

Data set [1] has as its system Lymphocytic leukemia P388 tumor. Description: P388 tumor test (Table 2, headed P328 Tumor test). In kind it is in vivo, BDF1 male mice. Particulars: for ED50 / ED90: Mus musculus, P388, ip; for ED50: read-out: ID50 (the source's name); for ED90: read-out: ID90 (the source's name). The protocol: Lymphocytic leukemia P388 liquid-type tumor was transplanted (1×10^6 cells) in abdominal cavity of BDF1 male mice having the body weight of about 20 g. The effect was evaluated by a method of ILS (Increase in life span).
Similarly lymphocytic leukemia P388 solid-type tumor was transplanted (1×10^6 cells) in subcutis on the back of BDF1 male mice having the body weight of about 22 g. The mice were killed 15 to 16 days after the transplantation and the inhibitory effect of tumor proliferation was evaluated by measuring the weight of tumor.
(§1) Each of 5, 10, 20, 50, 100 mg of compounds to be tested is dissolved in a phisiological NaCl solution (5 mg/kg of concentration) and administered by intraperitoneal injection (I.P.) or orally (P.O.). As to the reference the phisiological NaCl solution (5 mg/kg of concentration) was used.

The subject of data set [2] is Lymphoid leukemia L-1210 solid-type tumor. Description: L1210 Tumor test (solid-type tumor, subcutaneous, inhibition of tumor proliferation by tumor weight). In kind it is in vivo, BDF1 male mice. Particulars: Mus musculus, L1210, sc, I.O. (so in the source).
Data set [3] can be described thus: Acute toxicity test (LD50). In kind it is in vivo, ICR male mice. Particulars: for LD50: ICR male mice, I.P. The source says: LD50 (mg/kg) values (ICR male mice, I.P.) of R-(+)-cyclophosphamide, S-(-)-cyclophosphamide and racemic form of cyclophosphamide are shown below.
The test system of data set [4] is Lymphoid leukemia L-1210 solid-type tumor. The experiment in a line: L1210 Tumor test (solid-type tumor, subcutaneous, inhibition of tumor proliferation by tumor weight). Format: in vivo, BDF1 male mice. Particulars: for ED50 / ED90: Mus musculus; for ED50 / ED90 / ID50 / ID90: L1210 tumor; for ED50: read-out: ID50 (the source's name); for ED90: read-out: ID90 (the source's name). On the procedure:
Lymphoid leukemia L-1210 solid-type tumor was transplanted (1×10^6 cells) in subcutis on the back of BDF1 male mice having the body weight of about 22 g. The mice were killed 10-11 days after the transplantation and the inhibitory effect of tumor proliferation was evaluated by measuring the weight of tumor.
as §1

For data set [5] the following is noted: compared with R-(+)-cyclophosphamide; Cox et al. 1976; cited from earlier work.
In data set [6] the test system is PC6-Tumor. Particulars: compared with R-(+)-cyclophosphamide and racemic form; Cox et al. 1976; cited from earlier work.
Where [7] appears, read: P328 Tumor test (so in the source), I.P.
The mark [8] stands for this setting: mouse, in vivo, ip, read-out: LD50.

One may read the LD50 as the dose expected to kill half of the subjects tested.

SMILES strings stand for the structures. Like-named read-outs stand apart in the source and are kept apart here.

`O=P1(N(CCCl)CCCl)NCCCO1` (racemic) [Racemic form of cyclophosphamide, cyclophosphamide]: the ED50 in data set [1] (setting [7]) worked out at 12.9 mg/kg; in data set [2] (read-out: ID50 (the source's name)), 33 mg/kg; in data set [4] (L1210, po, P.O.), 28 mg/kg. The ED90 is 39.7 mg/kg in data set [1] (setting [7]); 107 mg/kg in data set [2] (read-out: ID90 (the source's name)); 90 mg/kg in data set [4] (L1210, po, P.O.). The LD50 in data set [3] (setting [8]) was found to be 440 mg/kg.

Take `O=P1(N(CCCl)CCCl)NCCCO1` (single isomer, unassigned) [R-(+)-cyclophosphamide]: the ED50 in data set [1] (setting [7]) amounted to 24.3 mg/kg; in data set [4] (L1210, ip, I.P.), 32 mg/kg; in data set [4] (L1210, po, P.O.), 24 mg/kg. The ED90 is 50.8 mg/kg in data set [1] (setting [7]); 104 mg/kg in data set [4] (L1210, ip, I.P.); 76 mg/kg in data set [4] (L1210, po, P.O.). Further, the acute toxicity entry in data set [3] (in mice, compared with S-(-)-cyclophosphamide and racemic form) is “lower acute toxicity (in mice) than those shown by S-(-)-cyclophosphamide and racemic form of cyclophosphamide”. The LD50 in data set [3] (setting [8]) was found to be 550 mg/kg. Besides, the “anti-tumor effect against L 1210-Tumor” value in data set [4] (compared with S-(-)-cyclophosphamide and racemic form) is “better anti-tumor effect than those of shown by S-(-)-cyclophosphamide and racemic form of cyclophosphamide”.

For the compound `O=P1(N(CCCl)CCCl)NCCCO1` (single isomer, unassigned) [S-(-)-cyclophosphamide], in data set [5], the pharmacological activities result is “excellent pharmacological activities as compared with R-(+)-cyclophosphamide”. The “anti-tumor effect against PC6-Tumor” value in data set [6] is “better than those of R-(+)-cyclophosphamide and racemic form of cyclophosphamide”. Also, the ID50 in data set [1] (setting [7]) amounted to 14.6 mg/kg; in data set [4] (I.P.), 44 mg/kg; in data set [4] (P.O.), 29 mg/kg. For the same compound, the values for the ID90 in data set [1] (setting [7]), in data set [4] (I.P.) and in data set [4] (P.O.) were 26.3 mg/kg, 143 mg/kg and 95 mg/kg, respectively. Moreover, the “anti-tumor effect against P388-Tumor” value in data set [1] (compared with R-(+)-cyclophosphamide and racemic form) is “better than those of R-(+)-cyclophosphamide and racemic form of cyclophosphamide”. Besides, in data set [3], the LD50 was determined as 330 mg/kg.
